{"source": "patent US7964191B2", "about": "“Compositions and methods for the treatment of ophthalmic disease” (Allergan, Inc., priority 2006, dated 2011)", "key": {"[1]": {"tested_on": "exudative age related macular degeneration", "test": "Treatment of a patient with exudative age related macular degeneration", "assay_type": "in vivo, human", "description": "A patient suffering from exudative age related macular degeneration in the right eye is given a subretinal injection of a biodegradable implant containing 1 μg total of equimolar amounts of oligonucleotide pair 4 (SEQ ID NO: 36 and SEQ ID NO: 37) in a volume of 100 μl. The eye is monitored weekly for 16 weeks.\nA patient is diagnosed with exudative age-related macular degeneration.\nThe patient is given an subconjunctival injection of a solution containing 10 mg of 1,1′-[1,4,phenylene-bis(methylene)]-bis-1,4,8,11-tetraazacyclotetradecane (AMD3100), see Bridger et al., US2004/0209921, incorporated by reference herein) in each eye once every two weeks for 6 months. The patient is monitored bimonthly and visual acuity tested."}, "ARPE-19 cells": {"tested_on": "ARPE-19 cells", "test": "Oxidative stress/cell viability (WST) assay in ARPE-19 cells exposed to t-BH", "assay_type": "cell-based", "description": "ARPE 19 cells (American Type Tissue Collection (ATTC) Number CRL2302) were plated at a cell density of 6×10^4 cells per 10 cm tissue culture dish, in Delbecco's Modified Eagle's Medium (DMEM) F12 containing 10% fetal bovine serum (FBS) and 1% antibiotic/antimycotic solution (10,000 units of penicillin G (sodium salt), 10,000 μg/ml of streptomycin sulfate, and 25 μg/ml of amphotericin B in 0.85% saline) incubated at 37° C. overnight.\nThese oligonucleotides or control oligonucleotides (Stealth RNAi negative control Med GC (Invitrogen, Inc.)) were added in 1.5 ml of OptiMem® media (Gibco BRL) to a final concentration of 25 nM. In a separate equal volume of OptiMem® media, 15 μl of lipofectamine reagent (Lipofectamine® 2000, Invitrogen, Inc.) was similarly added to equal volume of OptiMem® media and incubated at room temperature for 5 minutes.\nBoth solutions were then mixed together and further incubated for 20 minutes at room temperature. The cells were washed once with OptiMem® media, the total volume of the mixture was brought up to 10 ml with OptiMem® media (Gibco BRL) and then added to the cells. Cells were permitted to incubate overnight at 37° C. 24 hours following transfection, the transfection mixture was removed and 10 ml of fresh DMEM F12 media added to the cells. […]\nCell viability was measured using the WST assay (Chemicon International, Inc.) according to the manufacturer's instructions. […] Thus, the formazan dye produced by viable cells can be quantified by a multiwell spectrophotometer (microplate reader) by measuring the absorbance of the dye solution at 440 nm.\nIn this case, 10 μl of WST-1 reagent was added to each well after 24 hours. The optimum assay development time was determined to be 1.5 hours. Plates were then read in a Spectramax M2 Platereader® at 450 nm. […]"}, "CXCR4 mRNA": {"tested_on": "CXCR4 mRNA", "test": "CXCR4 RNA expression in ARPE-19 cells by whole human genome array hybridization", "assay_type": "cell-based", "details": "for expression of intact intracellular CXCR4 RNA: cells uninduced with t-BH, compared to cells untreated with siRNA or given control siRNA, FIG. 3", "description": "To isolate RNA from cells, 1 ml Qiazol® (a phenol/guanidinium isothiocyanate-based RNAse inhibitory lysis buffer sold by Qiagen, Inc.) was added to the ARPE-19 cells and the lysates then scraped into 2 ml tubes. 200 μl of chloroform per ml of Qiazol® was then added, the tubes mixed and centrifuged at 12,000×g for 15 minutes at 4° C. The aqueous phase was removed and applied to an RNeasy® mini column (Qiagen), washed and the column eluted with water. Five micrograms of the eluate were used for subsequent RT-PCR reactions. RT-PCR reactions were carried out using the Stratascript® First Strand Synthesis System (Stratagene). The RNA was denatured at 65° C. for 5 minutes, cooled at RT for 10 minutes then incubated at 42° C. for 60 minutes with reverse transcriptase.\nA whole human genome DNA oligonucleotide array (Agilent Technnologies, G4112A array) was used to hybridize against RNA samples prepared from ARPE-19 cells treated with t-BH. This 44K slide format contains a collection of 60-mer oligonucleotides with sequences representing over 41 K human genes and transcripts.\nRNA labeling was performed using the Low RNA Input Fluorescent Linear Amplification kit (LIK®) from Agilent Technologies (#5184-3523) following the manufacturer's recommendations. Briefly, 200 ng of total RNA from the ARPE-19 cells isolated as described in Example 2 were reverse transcribed in a 20 μL volume using with 1 μL Moloney Murine Leukemia Virus reverse transcriptase (MMLV-RT) and 1.2 μL of T7 promoter primer in 1× First Strand Buffer at 40° C. for 2 hours. From the double-stranded DNA preparation, transcription and direct labeling were prepared in 80 μL at 40° C. for 2 hours using 0.8 μL of T7 RNA polymerase, 0.6 μL inorganic pyrrophosphatase, 2.4 μL of each Cy-dye-CTP at 10 mM (PerkinElmer/NEN Life Sciences Cyanine-3-CTP #NEL580 and Cyanine-5-CTP #NEL581) in 4% PEG solution and 1× Transcription buffer. Cyanine dyes are highly sensitive fluorescent dyes.\nAmplified and labeled cRNA was purified on Rneasy® mini columns (Qiagen, Inc.) according to manufacturer's protocol. cRNA was quantified by absorbance at 260 nm, 550 nm and 650 nm. Once labeling is complete, both Cy3 and Cy5 RNA samples are combined and hybridized to the microarray using the Agilent In Situ Hybridization kit (#5184-3568) following Agilent's recommendations.\nBriefly 750 ng of cyanine 3-labeled linearly amplified cRNA and 750 ng of cyanine 5-labeled linearly amplified cRNA are combined to 1× control targets, 0.5× fragmentation buffer. This 2× target solution is denaturated at 60° C. for 30 minutes and 1× hybridization buffer in a 500 μL final volume is added to terminate the fragmentation reaction.\nThe target solution is then dispensed onto the 44K microarray. Incubation time was 17 hours at 60° C. in a hybridization oven with rotation at 4 rpm (Agilent Technologies #G2545A). Washes were performed for 5 minutes in 6×SSPE, 0.005% N-lauroyl sarcosine at room temperature, then for 5 minutes in 0.06×SSPE, 0.005% N-lauroyl sarcosine at room temperature, and finally for 30 seconds in Agilent Stabilization and Drying Solution®. The dried slides were scanned using a microarray scanner.\nTotal RNA was isolated from the cells (uninduced with t-BH) and the amount of CXCR4 RNA determined by gene array hybridization. The amount of CXCR4 in the naïve cells are standardized as “100%”."}, "[2]": {"details": "Example 8, subconjunctival 10 mg each eye every two weeks for 6 months"}}, "data": [{"molecule": "c1cc(CN2CCCNCCNCCCNCC2)ccc1CN1CCCNCCNCCCNCC1", "note": "[AMD3100, 1,1′-[1,4,phenylene-bis(methylene)]-bis-1,4,8,11-tetraazacyclotetradecane]", "values": [{"measurement": "fluorescein angiography: leakage of blood into retinal tissues", "setting": "[1]; Example 8, end of six-month treatment", "value": "no detectable leakage of blood into retinal tissues"}, {"measurement": "visibly apparent extent of retinal degeneration", "setting": "[1]; Example 8, end of six-month treatment versus beginning of study", "value": "no increase in the visibly apparent extent of retinal degeneration"}, {"measurement": "increase in visual acuity, left eye", "setting": "[1]; [2]", "value": "one"}, {"measurement": "increase in visual acuity, right eye", "setting": "[1]; [2]", "value": "two"}]}, {"molecule": "CC(C)(C)OO", "note": "[t-BH, tertiary-butylhydroperoxide]", "values": [{"measurement": "cells surviving for at least 24 hours", "setting": "ARPE-19 cells; ARPE-19 cells exposed to t-BH for 3 hours, then non t-BH-containing media", "value": "approximately 70%"}, {"measurement": "cell death", "setting": "ARPE-19 cells; ARPE-19 cells exposed to t-BH for 6 hours", "value": "cell death by 24 hours"}, {"measurement": "expression of CXCR4 RNA over baseline", "setting": "CXCR4 mRNA; ARPE-19 cells, immediately after six hours' incubation with t-BH", "value": 30, "unit": "fold"}, {"measurement": "increase in expression of CXCR4 RNA over baseline", "setting": "CXCR4 mRNA; ARPE-19 cells, immediately after three hours' exposure to t-BH, untreated cells as baseline", "value": 20, "unit": "fold"}, {"measurement": "reduction in CXCR4 expression after recovery", "setting": "CXCR4 mRNA; t-BH for three hours, then further three hours in t-BH-free medium", "value": "almost no reduction in CXCR4 expression"}, {"measurement": "decrease in CXCR4 RNA after recovery", "setting": "CXCR4 mRNA; t-BH for three hours, then further twenty four hours in t-BH-free medium, versus levels immediately following exposure", "value": "approximately 35%"}]}, {"molecule": "Pair 1: anti-CXCR4 double-stranded siRNA, SEQ ID NO: 10 and SEQ ID NO: 11 (chain 1 AACAGUGGAAGAAAGCUAGGGGCUC; chain 2 GAGGCCCUAGCUUUCUUCCACUGUU; listed as RNA, chemistry not given here)", "values": [{"measurement": "inhibition of cell death induced by oxidative stress (WST cell viability)", "setting": "ARPE-19 cells; ARPE-19 cells, 300 uM t-BH for 6 hours, siRNA at 10 nM or 25 nM, FIG. 2", "value": "inhibits the cell death induced by oxidative stress (exposure to 300 uM t-BH) in a dose-dependent fashion"}, {"measurement": "expression of intact intracellular CXCR4 RNA", "setting": "CXCR4 mRNA", "value": "reduce the expression of intact intracellular CXCR4 RNA"}]}, {"molecule": "Pair 2: anti-CXCR4 siRNA, SEQ ID NO: 12 and SEQ ID NO: 13 (chain 1 AACAGUGGAAGAAAGCUAGGGCCUC; chain 2 GAGGCCCUAGCUUUCUUCCACUGUU; listed as RNA, chemistry not given here)", "values": [{"measurement": "expression of intact intracellular CXCR4 RNA", "setting": "CXCR4 mRNA", "value": "reduce the expression of intact intracellular CXCR4 RNA"}]}, {"molecule": "Pair 3: anti-CXCR4 siRNA, SEQ ID NO: 14 and SEQ ID NO: 15 (chain 1 CUUGGAGUGUGACAGCUUGGAGAUG; chain 2 CAUCUCCAAGCUGUCACACUCCAAG; listed as RNA, chemistry not given here)", "values": [{"measurement": "expression of intact intracellular CXCR4 RNA", "setting": "CXCR4 mRNA", "value": "reduce the expression of intact intracellular CXCR4 RNA"}]}, {"molecule": "Pair 4: anti CXCR4 siRNA, SEQ ID NO: 36 and SEQ ID NO: 37 (chain 1 CCCACCAUCUACUCCAUCAUCUUCU; chain 2 AGAAGAUGAUGGAGUAGAUGGUGGG; listed as RNA, chemistry not given here)", "values": [{"measurement": "extent of macular degeneration", "setting": "[1]; Example 6, end of the 16 week period", "value": "no increase in the extent of macular degeneration is observed"}, {"measurement": "improvement in visual acuity", "setting": "[1]; Example 6, right eye, subretinal biodegradable implant, 1 μg total, by week 3, maintained for 16 weeks", "value": "two"}]}]}
